pIC50: −log10 of the molar value.
Biological target: T1, PD-1/PD-L1 (Homo sapiens, UniProt Q9NZQ7)
T1 construct: TVMV protease site linker (C); made in house; host or cells: HEK293T cells
Experiment: PD-1/PD-L1 Homogenous Time-Resolved Fluorescence (HTRF) binding assay
Details: PD-L1-His 10 nM, PD-1-Ig 20 nM
Source text: The ability of the compounds of the invention to bind to PD-L1 was investigated using a PD-1/PD-L1 Homogenous Time-Resolved Fluorescence (HTRF) binding assay.
Homogenous Time-Resolved Fluorescence (HTRF) binding assay.
The interaction of PD-1 and PD-L1 can be assessed using soluble, purified preparations of the extracellular domains of the two proteins. The PD-1 and PD-L1 protein extracellular domains were expressed as fusion proteins with detection tags, for PD-1, the tag was the Fc portion of Immunoglobulin (PD-1-Ig) and for PD-L1 it was the 6 histidine motif (PD-L1-His). All binding studies were performed in an HTRF assay buffer consisting of dPBS supplemented with 0.1% […] bovine serum albumin and 0.05% (v/v) Tween-20. For the h/PD-L1-His binding assay, inhibitors were pre-incubated with PD-L1-His (10 nM final) for 15 m in 4 μl of assay buffer, followed by addition of PD-1-Ig (20 nM final) in 1 μl of assay buffer and further incubation for 15 m. HTRF detection was achieved using europium crypate-labeled anti-Ig (1 nM final) and allophycocyanin (APC) labeled anti-His (20 nM final). Antibodies were diluted in HTRF detection buffer and 5 μl was dispensed on top of the binding reaction. […] Additional binding assays were established between the human proteins PD-1-Ig/PD-L2-His (20 & 5 nM, respectively) and CD80-His/PD-L1-Ig (100 & 10 nM, respectively). […]

T1 sequence (Q9NZQ7 18-239): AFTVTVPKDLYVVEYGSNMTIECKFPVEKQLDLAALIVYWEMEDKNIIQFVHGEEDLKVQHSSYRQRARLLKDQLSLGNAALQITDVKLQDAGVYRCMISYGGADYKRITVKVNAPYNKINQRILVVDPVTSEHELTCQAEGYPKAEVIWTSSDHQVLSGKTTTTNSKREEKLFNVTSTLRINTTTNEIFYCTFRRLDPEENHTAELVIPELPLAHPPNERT

Point of comparison: `Cc1c(COc2cc(OCc3cncc(C#N)c3)c(CNCCc3c[nH]cn3)cc2Cl)cccc1-c1cccc(OCCCN2CC[C@@H](O)C2)c1C` [Example 2532, (R)-5-((2-(((2-(1H-imidazol-4-yl)ethyl)amino)methyl)-4-chloro-5-((3′-(3-(3-hydroxypyrrolidin-1-yl)propoxy)-2,2′-dimethyl-[1,1′-biphenyl]-3-yl)methoxy)phenoxy)methyl)nicotinonitrile], pIC50 8.32. Against it:
- Cc1c(COc2cc(OCc3cncc(C#N)c3)c(CN(C)Cc3ncn[nH]3)cc2Cl)cccc1-c1cccc(OCCCN2CCC(O)(CO)CC2)c1Cl [Example 2013, 5-((2-((((1H-1,2,4-triazol-5-yl)methyl)(methyl)amino)methyl)-4-chloro-5-((2′-chloro-3′-(3-(4-hydroxy-4-(hydroxymethyl)piperidin-1-yl)propoxy)-2-methyl-[1,1′-biphenyl]-3-yl)methoxy)phenoxy)methyl)nicotinonitrile] — 0.64 log units higher, 8.96
- Cc1noc(C)c1CNCc1cc(Cl)c(OCc2cccc(-c3cccc(OCCCN4CC[C@@H](O)C4)c3C)c2C)cc1OCc1cncc(C#N)c1 [Example 2526, (R)-5-((4-chloro-2-((((3,5-dimethylisoxazol-4-yl)methyl)amino)methyl)-5-((3′-(3-(3-hydroxypyrrolidin-1-yl)propoxy)-2,2′-dimethyl-[1,1′-biphenyl]-3-yl)methoxy)phenoxy)methyl)nicotinonitrile] — 0.20 log units higher, 8.52
- Cc1n[nH]c(C)c1CNCc1cc(Cl)c(OCc2cccc(-c3cccc(OCCCN4CC[C@@H](O)C4)c3C)c2C)cc1OCc1cncc(C#N)c1 [Example 2570, (R)-5-((4-chloro-2-((((3,5-dimethyl-1H-pyrazol-4-yl)methyl)amino)methyl)-5-((3′-(3-(3-hydroxypyrrolidin-1-yl)propoxy)-2,2′-dimethyl-[1,1′-biphenyl]-3-yl)methoxy)phenoxy)methyl)nicotinonitrile] — 0.50 log units higher, 8.82
- Cc1c(COc2cc(OCc3cncc(C#N)c3)c(CN(C)Cc3cncnc3)cc2Cl)cccc1-c1cccc(OCCCN2CC[C@@H](O)C2)c1C [Example 2032, (R)-5-((4-chloro-5-((3′-(3-(3-hydroxypyrrolidin-1-yl)propoxy)-2,2′-dimethyl-[1,1′-biphenyl]-3-yl)methoxy)-2-((methyl(pyrimidin-5-ylmethyl)amino)methyl)phenoxy)methyl)nicotinonitrile] — 0.28 log units higher, 8.60
- Cc1nc(CNCc2cc(Cl)c(OCc3cccc(-c4cccc(OCCCN5CC[C@@H](O)C5)c4C)c3C)cc2OCc2cncc(C#N)c2)no1 [Example 2540, (R)-5-((4-chloro-5-((3′-(3-(3-hydroxypyrrolidin-1-yl)propoxy)-2,2′-dimethyl-[1,1′-biphenyl]-3-yl)methoxy)-2-((((5-methyl-1,2,4-oxadiazol-3-yl)methyl)amino)methyl)phenoxy)methyl)nicotinonitrile] — within 0.2 log units, 8.51
- Cc1c(COc2cc(OCc3cncc(C#N)c3)c(CNCc3ccnc(C#N)n3)cc2Cl)cccc1-c1cccc(OCCCN2CCC(O)(CO)CC2)c1Cl [Example 2044, 4-(((5-chloro-4-((2′-chloro-3′-(3-(4-hydroxy-4-(hydroxymethyl)piperidin-1-yl)propoxy)-2-methyl-[1,1′-biphenyl]-3-yl)methoxy)-2-((5-cyanopyridin-3-yl)methoxy)benzyl)amino)methyl)pyrimidine-2-carbonitrile] — 0.53 log units higher, 8.85
- CC(=O)NC1CCN(CCCOc2cccc(-c3cccc(COc4cc(OCc5cncc(C#N)c5)c(CN5CCCCC5c5nnn[nH]5)cc4Cl)c3C)c2C)CC1 (stereo not shown) [Example 1048, N-(1-(3-((3′-((4-((2-(1H-Tetrazol-5-yl)piperidin-1-yl)methyl)-2-chloro-5-((5-cyano-pyridin-3-yl)methoxy)phenoxy)methyl)-2,2′-dimethyl-[1,1′-biphenyl]-3-yl)oxy)propyl)-piperidin-4-yl)acetamide] — 0.98 log units higher, 9.30
- Cc1c(COc2cc(OCc3cncc(C#N)c3)c(CN(C)Cc3cccnc3)cc2Cl)cccc1-c1cccc(OCCCN2CC[C@@H](O)C2)c1C [Example 2501, (R)-5-((4-chloro-5-((3′-(3-(3-hydroxypyrrolidin-1-yl)propoxy)-2,2′-dimethyl-[1,1′-biphenyl]-3-yl)methoxy)-2-((methyl(pyridin-3-ylmethyl)amino)methyl)phenoxy)methyl)nicotinonitrile] — 0.32 log units higher, 8.64
- Cc1c(COc2cc(OCc3cncc(C#N)c3)c(CN(C)C3CCc4[nH]ncc4C3)cc2Cl)cccc1-c1cccc(OCCCN2CC[C@@H](O)C2)c1C (stereo partly drawn) [Example 2564, 5-((4-chloro-5-((3′-(3-((R)-3-hydroxypyrrolidin-1-yl)propoxy)-2,2′-dimethyl-[1,1′-biphenyl]-3-yl)methoxy)-2-((methyl(4,5,6,7-tetrahydro-1H-indazol-5-yl)amino)methyl)phenoxy)methyl)nicotinonitrile] — 0.25 log units higher, 8.57
- CC(=O)NC1CCN(CCCOc2cccc(-c3cccc(COc4cc(OCc5cncc(C#N)c5)c(CN5CCCCC5c5cc[nH]n5)cc4Cl)c3C)c2C)CC1 (stereo not shown) [Example 1053, N-(1-(3-((3′-((4-((2-(1H-Pyrazol-3-yl)piperidin-1-yl)methyl)-2-chloro-5-((5-cyano-pyridin-3-yl)methoxy)phenoxy)methyl)-2,2′-dimethyl-[1,1′-biphenyl]-3-yl)oxy)propyl)-piperidin-4-yl)acetamide] — 0.20 log units lower, 8.12
- Cc1c(COc2cc(OCc3cncc(C#N)c3)c(CNCc3ncccn3)cc2Cl)cccc1-c1cccc(OCC2CCCN(CCC(F)(F)F)C2)c1Cl (stereo not shown) [Example 2066, 5-((4-chloro-5-((2′-chloro-2-methyl-3′-((1-(3,3,3-trifluoropropyl)piperidin-3-yl)methoxy)-[1,1′-biphenyl]-3-yl)methoxy)-2-(((pyrimidin-2-ylmethyl)amino)methyl)phenoxy)methyl)nicotinonitrile] — 1.20 log units lower, 7.12
- Cc1c(COc2cc(OCc3cncc(C#N)c3)c(CN(C)Cc3cc[nH]n3)cc2Cl)cccc1-c1cccc(OCCCN2CC[C@@H](O)C2)c1C [Example 2005, (R)-5-((2-((((1H-pyrazol-3-yl)methyl)(methyl)amino)methyl)-4-chloro-5-((3′-(3-(3-hydroxypyrrolidin-1-yl)propoxy)-2,2′-dimethyl-[1,1′-biphenyl]-3-yl)methoxy)phenoxy)methyl)nicotinonitrile] — 0.28 log units higher, 8.60
- Cc1c(COc2cc(OCc3cncc(C#N)c3)c(CNCc3cc(-c4ccccc4)on3)cc2Cl)cccc1-c1cccc(OCCCN2CC[C@@H](O)C2)c1C [Example 2538, (R)-5-((4-chloro-5-((3′-(3-(3-hydroxypyrrolidin-1-yl)propoxy)-2,2′-dimethyl-[1,1′-biphenyl]-3-yl)methoxy)-2-((((5-phenylisoxazol-3-yl)methyl)amino)methyl)phenoxy)methyl)nicotinonitrile] — 0.96 log units lower, 7.36
- Cc1c(COc2cc(OCc3cncc(C#N)c3)c(CNc3nnn[nH]3)cc2Cl)cccc1-c1cccc(OCCCN2CC[C@@H](O)C2)c1C [Example 1001, (R)-5-((2-(((1H-Tetrazol-5-yl)amino)methyl)-4-chloro-5-((3′-(3-(3-hydroxypyrrolidin-1-yl)propoxy)-2,2′-dimethyl-[1,1′-biphenyl]-3-yl)methoxy)phenoxy)methyl)nicotinonitrile] — within 0.2 log units, 8.31
- Cc1c(COc2cc(OCc3cncc(C#N)c3)c(CNCc3ncn[nH]3)cc2Cl)cccc1-c1cccc(OCCCN2CC[C@@H](O)C2)c1C [Example 2002, (R)-5-((2-((((1H-1,2,4-triazol-5-yl)methyl)amino)methyl)-4-chloro-5-((3′-(3-(3-hydroxypyrrolidin-1-yl)propoxy)-2,2′-dimethyl-[1,1′-biphenyl]-3-yl)methoxy)phenoxy)methyl)nicotinonitrile] — 0.29 log units lower, 8.03
- Cc1c(COc2cc(OCc3cncc(C#N)c3)c(CN(C)Cc3nccs3)cc2Cl)cccc1-c1cccc(OCCCN2CC[C@@H](O)C2)c1C [Example 2533, (R)-5-((4-chloro-5-((3′-(3-(3-hydroxypyrrolidin-1-yl)propoxy)-2,2′-dimethyl-[1,1′-biphenyl]-3-yl)methoxy)-2-((methyl(thiazol-2-ylmethyl)amino)methyl)phenoxy)methyl)nicotinonitrile] — 0.25 log units higher, 8.57
- Cc1c[nH]c(CN(C)Cc2cc(Cl)c(OCc3cccc(-c4cccc(OCCCN5CC[C@@H](O)C5)c4C)c3C)cc2OCc2cncc(C#N)c2)n1 [Example 2024, (R)-5-((4-chloro-5-((3′-(3-(3-hydroxypyrrolidin-1-yl)propoxy)-2,2′-dimethyl-[1,1′-biphenyl]-3-yl)methoxy)-2-((methyl((4-methyl-1H-imidazol-2-yl)methyl)amino)methyl)phenoxy)methyl)nicotinonitrile] — 0.90 log units higher, 9.22
- Cc1[nH]cnc1COc1cc(OCc2cccc(-c3cccc(OCCCN4CC[C@@H](O)C4)c3C)c2C)c(Cl)cc1CNCc1ccnc(C#N)n1 [Example 2042, (R)-4-(((5-chloro-4-((3′-(3-(3-hydroxypyrrolidin-1-yl)propoxy)-2,2′-dimethyl-[1,1′-biphenyl]-3-yl)methoxy)-2-((5-methyl-1H-imidazol-4-yl)methoxy)benzyl)amino)methyl)pyrimidine-2-carbonitrile] — 1.27 log units lower, 7.05
